Assays:
Experiment in all cases: KinaseProfiler
Type in all cases: biochemical
Conditions in all cases: 10 μM, ATP near Km
[1] = target: T1, CHK2 (Homo sapiens, UniProt O96017)
T1 construct: purchased Millipore, Inc. (KinaseProfiler service)
Description: (§1) A representative compound (Example 15) of the invention was tested for off-target kinase activity at a concentration of 10 μM by Millipore, Inc. in their KinaseProfiler™ service against all the kinases available in their full kinase panel. The compound was run in duplicate at a concentration of ATP near the Km for each individual kinase according to Millipore's specifications. The results are shown in Table B. Data are reported as percent of control (POC) and are the average of the two replicates.

[2] = target: T2, MSK2 (Homo sapiens, UniProt O75676)
T2 construct: purchased Millipore, Inc. (KinaseProfiler service)
Description: as §1

[3] = target: T3, Rsk1 (Homo sapiens, UniProt Q15418)
T3 construct: purchased Millipore, Inc. (KinaseProfiler service)
Description: as §1

[4] = target: T4, PKD1 (Homo sapiens, UniProt Q15139)
T4 construct: purchased Millipore, Inc. (KinaseProfiler service)
Description: as §1

[5] = target: T5, CDK2/cyclinA (Homo sapiens, UniProt P24941)
T5 construct: purchased Millipore, Inc. (KinaseProfiler service)
Description: as §1

[6] = target: T6, CDK6/cyclinD3 (Homo sapiens, UniProt Q00534)
T6 construct: purchased Millipore, Inc. (KinaseProfiler service)
Description: as §1

[7] = target: T7, ITK (Homo sapiens, UniProt Q08881)
T7 construct: purchased Millipore, Inc. (KinaseProfiler service)
T7 sequence (Q08881 whole entry): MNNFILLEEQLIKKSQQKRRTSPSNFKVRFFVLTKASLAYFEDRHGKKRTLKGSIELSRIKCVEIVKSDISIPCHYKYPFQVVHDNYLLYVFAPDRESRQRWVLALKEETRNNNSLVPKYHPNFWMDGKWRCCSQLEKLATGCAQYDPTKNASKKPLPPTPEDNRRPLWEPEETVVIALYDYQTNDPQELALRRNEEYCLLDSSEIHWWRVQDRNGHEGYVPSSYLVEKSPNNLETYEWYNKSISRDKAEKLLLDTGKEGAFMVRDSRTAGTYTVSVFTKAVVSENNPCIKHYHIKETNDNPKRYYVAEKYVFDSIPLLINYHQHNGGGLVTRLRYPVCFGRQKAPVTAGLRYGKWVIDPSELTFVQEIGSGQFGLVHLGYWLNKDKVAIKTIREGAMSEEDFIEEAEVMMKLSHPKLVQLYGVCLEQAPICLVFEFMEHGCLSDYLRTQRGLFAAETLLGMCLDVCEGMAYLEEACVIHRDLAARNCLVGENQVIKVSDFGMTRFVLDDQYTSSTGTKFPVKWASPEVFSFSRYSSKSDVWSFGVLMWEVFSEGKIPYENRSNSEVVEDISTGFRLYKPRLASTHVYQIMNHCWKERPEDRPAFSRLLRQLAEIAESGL
Description: as §1

[8] = target: T8, PASK (Homo sapiens, UniProt Q96RG2)
T8 construct: purchased Millipore, Inc. (KinaseProfiler service)
Description: as §1

[9] = target: T9, EphA7 (Homo sapiens, UniProt Q15375)
T9 construct: purchased Millipore, Inc. (KinaseProfiler service)
T9 sequence (Q15375 28-998): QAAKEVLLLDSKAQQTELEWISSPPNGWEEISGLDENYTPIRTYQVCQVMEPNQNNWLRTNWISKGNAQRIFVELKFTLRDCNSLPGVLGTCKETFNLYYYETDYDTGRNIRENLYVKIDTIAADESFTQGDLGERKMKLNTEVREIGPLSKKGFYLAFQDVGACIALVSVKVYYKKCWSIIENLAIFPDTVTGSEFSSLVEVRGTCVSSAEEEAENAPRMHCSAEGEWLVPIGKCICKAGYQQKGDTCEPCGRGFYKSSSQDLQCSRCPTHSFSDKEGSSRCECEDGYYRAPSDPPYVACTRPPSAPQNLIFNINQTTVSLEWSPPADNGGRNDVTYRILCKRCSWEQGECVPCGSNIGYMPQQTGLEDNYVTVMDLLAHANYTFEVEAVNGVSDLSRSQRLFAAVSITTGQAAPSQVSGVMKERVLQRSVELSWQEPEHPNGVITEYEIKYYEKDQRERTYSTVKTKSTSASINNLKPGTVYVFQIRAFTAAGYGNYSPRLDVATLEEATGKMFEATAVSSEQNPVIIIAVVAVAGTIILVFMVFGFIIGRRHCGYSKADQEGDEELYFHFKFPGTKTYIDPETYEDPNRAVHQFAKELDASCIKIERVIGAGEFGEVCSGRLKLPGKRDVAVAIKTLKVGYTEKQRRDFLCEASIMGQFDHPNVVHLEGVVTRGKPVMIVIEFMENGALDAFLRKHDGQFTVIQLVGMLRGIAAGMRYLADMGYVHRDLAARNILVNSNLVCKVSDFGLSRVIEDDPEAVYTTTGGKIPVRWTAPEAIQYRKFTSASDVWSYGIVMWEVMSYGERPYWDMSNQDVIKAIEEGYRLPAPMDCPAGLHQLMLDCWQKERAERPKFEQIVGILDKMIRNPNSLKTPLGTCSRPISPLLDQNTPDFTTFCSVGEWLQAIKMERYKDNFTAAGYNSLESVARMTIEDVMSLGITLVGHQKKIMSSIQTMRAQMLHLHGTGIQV
Description: as §1

[10] = target: T10, IKKalpha (Homo sapiens, UniProt O15111)
T10 construct: purchased Millipore, Inc. (KinaseProfiler service)
T10 sequence (O15111 whole entry): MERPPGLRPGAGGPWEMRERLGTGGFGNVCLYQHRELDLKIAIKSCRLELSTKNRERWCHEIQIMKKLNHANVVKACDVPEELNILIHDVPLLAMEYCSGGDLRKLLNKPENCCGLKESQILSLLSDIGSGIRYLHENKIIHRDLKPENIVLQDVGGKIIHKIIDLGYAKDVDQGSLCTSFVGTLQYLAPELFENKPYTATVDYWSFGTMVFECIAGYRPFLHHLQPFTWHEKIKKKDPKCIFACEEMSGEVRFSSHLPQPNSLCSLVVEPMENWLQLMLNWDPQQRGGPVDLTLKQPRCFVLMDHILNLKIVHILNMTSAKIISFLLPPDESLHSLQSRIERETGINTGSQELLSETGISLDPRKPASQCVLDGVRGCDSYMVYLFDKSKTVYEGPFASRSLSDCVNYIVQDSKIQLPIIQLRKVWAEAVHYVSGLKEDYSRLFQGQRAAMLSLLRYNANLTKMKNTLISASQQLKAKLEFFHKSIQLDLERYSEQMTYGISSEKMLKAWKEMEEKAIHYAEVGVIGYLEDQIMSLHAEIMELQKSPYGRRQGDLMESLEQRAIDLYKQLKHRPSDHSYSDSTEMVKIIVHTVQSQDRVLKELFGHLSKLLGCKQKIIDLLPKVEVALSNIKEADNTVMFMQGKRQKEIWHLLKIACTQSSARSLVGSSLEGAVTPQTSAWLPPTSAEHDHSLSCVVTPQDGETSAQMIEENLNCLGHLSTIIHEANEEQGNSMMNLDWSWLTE
Description: as §1

[11] = target: T11, GRK5 (Homo sapiens, UniProt P34947)
T11 construct: purchased Millipore, Inc. (KinaseProfiler service)
Description: as §1

[12] = target: T12, EphB1 (Homo sapiens, UniProt P54762)
T12 construct: purchased Millipore, Inc. (KinaseProfiler service)
Description: as §1

[13] = target: T13, SGK1 (Homo sapiens, UniProt O00141)
T13 construct: purchased Millipore, Inc. (KinaseProfiler service)
Description: as §1

[14] = target: T14, IR Activated (Homo sapiens, UniProt P06213)
T14 construct: purchased Millipore, Inc. (KinaseProfiler service)
Description: as §1

[15] = target: T15, Plk2 (Homo sapiens, UniProt Q9NYY3)
T15 construct: purchased Millipore, Inc. (KinaseProfiler service)
Description: as §1

[16] = target: T16, RIPK2 (Homo sapiens, UniProt O43353)
T16 construct: purchased Millipore, Inc. (KinaseProfiler service)
Description: as §1

[17] = target: T17, ROCK-I (Homo sapiens, UniProt Q13464)
T17 construct: purchased Millipore, Inc. (KinaseProfiler service)
Description: as §1

[18] = target: T18, CK1gamma1 (Homo sapiens, UniProt Q9HCP0)
T18 construct: purchased Millipore, Inc. (KinaseProfiler service)
Description: as §1

[19] = target: T19, DYRK2 (Homo sapiens, UniProt Q92630)
T19 construct: purchased Millipore, Inc. (KinaseProfiler service)
Description: as §1

[20] = target: T20, Rsk3 (Homo sapiens, UniProt Q15349)
T20 construct: purchased Millipore, Inc. (KinaseProfiler service)
T20 sequence (Q15349 whole entry): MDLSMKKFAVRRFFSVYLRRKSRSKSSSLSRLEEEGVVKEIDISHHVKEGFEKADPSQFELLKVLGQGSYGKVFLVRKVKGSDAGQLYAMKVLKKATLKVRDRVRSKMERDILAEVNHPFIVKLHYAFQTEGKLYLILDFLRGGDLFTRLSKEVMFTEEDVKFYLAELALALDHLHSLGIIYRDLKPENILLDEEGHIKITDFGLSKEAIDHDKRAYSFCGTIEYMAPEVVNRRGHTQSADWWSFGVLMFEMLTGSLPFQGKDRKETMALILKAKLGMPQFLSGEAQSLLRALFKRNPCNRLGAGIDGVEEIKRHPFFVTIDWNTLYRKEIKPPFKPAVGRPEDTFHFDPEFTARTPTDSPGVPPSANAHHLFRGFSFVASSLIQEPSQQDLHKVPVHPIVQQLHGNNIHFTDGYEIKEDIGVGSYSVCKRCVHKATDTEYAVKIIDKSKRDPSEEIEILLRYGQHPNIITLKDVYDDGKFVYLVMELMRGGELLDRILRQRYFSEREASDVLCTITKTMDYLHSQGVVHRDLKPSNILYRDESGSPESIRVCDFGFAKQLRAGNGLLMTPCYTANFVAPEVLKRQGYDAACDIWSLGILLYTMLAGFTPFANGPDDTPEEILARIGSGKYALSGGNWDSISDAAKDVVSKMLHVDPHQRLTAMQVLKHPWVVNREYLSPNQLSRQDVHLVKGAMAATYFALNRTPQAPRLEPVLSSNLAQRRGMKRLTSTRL
Description: as §1

[21] = target: T21, AKT3 (Homo sapiens, UniProt Q9Y243)
T21 construct: purchased Millipore (KinaseProfiler service)
Description: as §1

[22] = target: T22, NEK2 (Homo sapiens, UniProt P51955)
T22 construct: purchased Millipore, Inc. (KinaseProfiler service)
Description: as §1

[23] = target: T23, ARKS (Homo sapiens, UniProt O60285)
T23 construct: purchased Millipore (KinaseProfiler service)
Description: as §1

[24] = target: T24, PAK4 (Homo sapiens, UniProt O96013)
T24 construct: purchased Millipore, Inc. (KinaseProfiler service)
Description: as §1

[25] = target: T25, CAMK1d (Homo sapiens, UniProt Q8IU85)
T25 construct: purchased Millipore (KinaseProfiler service)
Description: as §1

[26] = target: T26, Abl-P (Homo sapiens, UniProt P00519)
T26 construct: purchased Millipore (KinaseProfiler service)
T26 sequence (P00519 27-1130 limits assumed): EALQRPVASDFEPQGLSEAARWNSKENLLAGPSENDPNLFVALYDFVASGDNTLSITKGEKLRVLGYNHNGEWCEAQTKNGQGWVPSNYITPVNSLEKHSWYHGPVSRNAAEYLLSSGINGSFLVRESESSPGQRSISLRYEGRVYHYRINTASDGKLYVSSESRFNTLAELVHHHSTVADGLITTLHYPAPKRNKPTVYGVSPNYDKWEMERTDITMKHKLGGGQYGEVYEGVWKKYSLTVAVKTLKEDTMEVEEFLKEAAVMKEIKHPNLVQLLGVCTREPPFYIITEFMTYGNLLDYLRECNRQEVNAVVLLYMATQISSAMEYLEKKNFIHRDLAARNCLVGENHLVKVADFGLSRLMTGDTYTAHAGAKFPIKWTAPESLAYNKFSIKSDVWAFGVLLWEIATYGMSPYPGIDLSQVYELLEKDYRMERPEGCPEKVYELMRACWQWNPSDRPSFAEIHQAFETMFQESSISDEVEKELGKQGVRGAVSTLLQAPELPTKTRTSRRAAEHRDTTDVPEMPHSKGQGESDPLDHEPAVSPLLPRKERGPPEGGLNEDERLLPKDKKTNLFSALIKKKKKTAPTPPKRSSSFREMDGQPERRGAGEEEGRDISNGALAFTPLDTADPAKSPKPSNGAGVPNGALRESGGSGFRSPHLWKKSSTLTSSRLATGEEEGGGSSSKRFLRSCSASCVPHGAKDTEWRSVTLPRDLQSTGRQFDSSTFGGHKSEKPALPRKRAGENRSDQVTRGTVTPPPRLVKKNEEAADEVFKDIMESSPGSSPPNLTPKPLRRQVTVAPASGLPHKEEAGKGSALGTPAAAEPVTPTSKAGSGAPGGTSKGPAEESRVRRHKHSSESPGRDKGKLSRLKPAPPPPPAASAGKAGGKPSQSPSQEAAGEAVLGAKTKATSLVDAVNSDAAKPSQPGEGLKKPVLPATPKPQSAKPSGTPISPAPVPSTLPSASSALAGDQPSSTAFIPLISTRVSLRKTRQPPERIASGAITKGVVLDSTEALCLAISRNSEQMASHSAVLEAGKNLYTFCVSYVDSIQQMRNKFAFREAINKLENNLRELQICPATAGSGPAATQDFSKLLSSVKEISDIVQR
Description: as §1

[27] = target: T27, JNK3 (Homo sapiens, UniProt P53779)
T27 construct: purchased Millipore, Inc. (KinaseProfiler service)
Description: as §1

[28] = target: T28, NLK (Homo sapiens, UniProt Q9UBE8)
T28 construct: purchased Millipore, Inc. (KinaseProfiler service)
Description: as §1

[29] = target: T29, MARK2 (Homo sapiens, UniProt Q7KZI7)
T29 construct: purchased Millipore, Inc. (KinaseProfiler service)
Description: as §1

[30] = target: T30, DAPK2 (Homo sapiens, UniProt Q9UIK4)
T30 construct: purchased Millipore, Inc. (KinaseProfiler service)
Description: as §1

[31] = target: T31, PKAC-alpha (Homo sapiens, UniProt P17612)
T31 construct: purchased Millipore, Inc. (KinaseProfiler service)
Description: as §1

[32] = target: T32, PAK5 (Homo sapiens, UniProt Q9P286)
T32 construct: purchased Millipore, Inc. (KinaseProfiler service)
Description: as §1

[33] = target: T33, CK2 (Homo sapiens, UniProt P68400)
T33 construct: purchased Millipore, Inc. (KinaseProfiler service)
Description: as §1

[34] = target: T34, Mer (Homo sapiens, UniProt Q12866)
T34 construct: purchased Millipore, Inc. (KinaseProfiler service)
Description: as §1

[35] = target: T35, ZAP-70 (Homo sapiens, UniProt P43403)
T35 construct: purchased Millipore, Inc. (KinaseProfiler service)
Description: as §1

[36] = target: T36, IKKbeta (Homo sapiens, UniProt O14920)
T36 construct: purchased Millipore, Inc. (KinaseProfiler service)
Description: as §1

[37] = target: T37, BLK_m (Mus musculus, UniProt P16277)
T37 construct: purchased Millipore (KinaseProfiler service)
Description: as §1

[38] = target: T38, IR (Homo sapiens, UniProt P06213)
T38 construct: purchased Millipore, Inc. (KinaseProfiler service)
Description: as §1

[39] = target: T39, VRK2 (Homo sapiens, UniProt Q86Y07)
T39 construct: purchased Millipore, Inc. (KinaseProfiler service)
Description: as §1

[40] = target: T40, CAMK1 (Homo sapiens, UniProt Q14012)
T40 construct: purchased Millipore (KinaseProfiler service)
Description: as §1

[41] = target: T41, SRPK1 (Homo sapiens, UniProt Q96SB4)
T41 construct: purchased Millipore, Inc. (KinaseProfiler service)
T41 sequence (Q96SB4 whole entry): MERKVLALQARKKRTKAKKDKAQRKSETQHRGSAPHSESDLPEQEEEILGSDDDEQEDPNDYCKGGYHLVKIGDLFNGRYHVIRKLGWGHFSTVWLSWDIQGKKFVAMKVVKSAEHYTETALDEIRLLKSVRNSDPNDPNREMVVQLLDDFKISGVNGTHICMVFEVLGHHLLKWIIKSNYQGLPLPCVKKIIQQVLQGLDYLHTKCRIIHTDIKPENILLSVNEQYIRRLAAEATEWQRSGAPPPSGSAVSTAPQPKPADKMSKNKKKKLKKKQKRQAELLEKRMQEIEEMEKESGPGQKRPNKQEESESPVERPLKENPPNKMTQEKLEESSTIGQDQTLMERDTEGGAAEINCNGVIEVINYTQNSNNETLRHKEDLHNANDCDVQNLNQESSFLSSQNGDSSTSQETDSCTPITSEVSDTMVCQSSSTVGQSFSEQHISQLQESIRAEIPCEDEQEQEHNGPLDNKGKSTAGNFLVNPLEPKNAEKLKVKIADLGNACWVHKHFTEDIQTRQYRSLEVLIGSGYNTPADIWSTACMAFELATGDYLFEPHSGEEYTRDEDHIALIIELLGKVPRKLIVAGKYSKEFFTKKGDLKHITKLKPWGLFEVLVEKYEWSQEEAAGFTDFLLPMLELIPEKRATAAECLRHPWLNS
Description: as §1

Avg POC [1]: 130 POC
Avg POC [2]: 147 POC
Avg POC [3]: 118 POC
Avg POC [4]: 113.5 POC
Avg POC [5]: 112.5 POC
Avg POC [6]: 111 POC
Avg POC [7]: 125 POC
Avg POC [8]: 188 POC
Avg POC [9]: 103 POC
Avg POC [10]: 128 POC
Avg POC [11]: 90 POC
Avg POC [12]: 130 POC
Avg POC [13]: 124 POC
Avg POC [14]: 119.5 POC
Avg POC [15]: 105 POC
Avg POC [16]: 102 POC
Avg POC [17]: 117.5 POC
Avg POC [18]: 99.5 POC
Avg POC [19]: 93.5 POC
Avg POC [20]: 104 POC
Avg POC [21]: 119.5 POC
Avg POC [22]: 88.5 POC
Avg POC [23]: 97.5 POC
Avg POC [24]: 110.5 POC
Avg POC [25]: 103 POC
Avg POC [26]: 140.5 POC
Avg POC [27]: 104 POC
Avg POC [28]: 117 POC
Avg POC [29]: 101.5 POC
Avg POC [30]: 104.5 POC
Avg POC [31]: 149 POC
Avg POC [32]: 132.5 POC
Avg POC [33]: 94.5 POC
Avg POC [34]: 97.5 POC
Avg POC [35]: 141.5 POC
Avg POC [36]: 113.5 POC
Avg POC [37]: 118.5 POC
Avg POC [38]: 95 POC
Avg POC [39]: 94 POC
Avg POC [40]: 96 POC
Avg POC [41]: 112.5 POC
SMILES: COCCCc1cc(Cl)c(Cl)cc1NC(=O)Nc1c(C)c(-c2cnn(C)c2)nn1-c1ccccc1 [Example 15, 1-(4,5-dichloro-2-(3-methoxypropyl)phenyl)-3-(1′,4-dimethyl-1-phenyl-1H,1′H-[3,4′-bipyrazol]-5-yl)urea]

Reference: patent publication US9790210B2, “N-(monocyclic aryl),N'-pyrazolyl-urea, thiourea, guanidine and cyanoguanidine compounds as TrkA kinase inhibitors” (Array BioPharma Inc., priority 2012, dated 2017)
